Results taken from the SangsterLogP compilation.

Test: method code SF-AS, from DOI: 10.1021/jm00254a011, PMID: 4845376
Details: not given

SMILES	logP
O=C1NCCN1c1ncc([N+](=O)[O-])s1	0.91
CSC1=NCCN1c1ncc([N+](=O)[O-])s1	1.78
CSC1=NCCN1c1ccc([N+](=O)[O-])o1	1.19
O=C1NCCN1c1ccc([N+](=O)[O-])o1	0.25
O=[N+]([O-])c1cnc(N2CCNC2=S)s1	1.7

Test: method code SF-AS, from DOI: 10.1007/bf00165040, PMID: 3033523
Details: pH 7.4

SMILES	logD
Nc1ncnc2c1nc(Sc1ccccc1)n2C1OC2COP(=O)(OCc3ccccc3)OC2C1O (centres undefined)	1.92
CC(C)(C)Sc1nc2c(N)ncnc2n1C1OC2COP(=O)(Oc3ccccc3)OC2C1O (centres undefined)	2.05
Nc1ncnc2c1nc(Sc1ccc(Cl)cc1)n2C1OC2COP(=O)(OCc3ccccc3)OC2C1O (centres undefined)	2.24
Nc1ncnc2c1nc(Br)n2C1OC2COP(=O)(Oc3ccccc3)OC2C1O (centres undefined)	1.58
CSc1nc2c(N)ncnc2n1C1OC2COP(=O)(OCc3ccccc3)OC2C1O (centres undefined)	1.62
Nc1ncnc2c1nc(SCc1ccccc1)n2[C@@H]1O[C@@H]2COP(=O)(O)O[C@H]2[C@H]1O	-1.15

Test: method code SF-AS, from DOI: 10.1016/s0003-2670(01)80868-0
Details: not given

SMILES	logP
CC(=O)CC(C)=O	0.14
CC(=O)CC(=O)C(C)(C)C	1.67
CCC(=O)CC(=O)CC	1.12
CC(C)C(=O)CC(=O)C(C)C	2.22
CCCC(=O)CC(=O)CCC	2.23

Test: not given
Details: not given

SMILES	logP
O=C(CCCCCN1CCC(O)(c2ccc(Cl)cc2)CC1)c1ccc(F)cc1	4.16
O=C(CCN1CCC(O)(c2ccc(Cl)cc2)CC1)c1ccc(F)cc1	3.24
O=C(CCCCN1CCC(O)(c2ccc(Cl)cc2)CC1)c1ccc(F)cc1	3.81
OC1(c2ccc(Cl)cc2)CCN(CCCSc2ccc(F)cc2)CC1	4.17
OC(CCCN1CCC(O)(c2ccc(Cl)cc2)CC1)c1ccc(F)cc1 (centres undefined)	3.26
CC(C)c1ccc(C(=O)CCCN2CCC(O)(c3ccc(Cl)cc3)CC2)cc1	4.2

Test: not given
Details: not given
Remark: another data set of the same source

SMILES	logP
O=[N+]([O-])c1cccc(Cl)c1Cl	3.01
O=[N+]([O-])c1cc(Cl)cc(Cl)c1	3.13
Cc1ccc([N+](=O)[O-])cc1C	2.91
Cc1ccc(Cl)cc1[N+](=O)[O-]	3.05
Cc1cccc([N+](=O)[O-])c1C	2.83

Test: method code SF-AS, from DOI: 10.1016/0147-6513(87)90041-8, PMID: 3830021
Details: not given

SMILES	logP
CCCCN(CCOC(C)=O)c1ccc(/N=N/c2c(C#N)cc([N+](=O)[O-])cc2C#N)c(C)c1	4
CCn1c(O)c(C#N)c(C)c(/N=N/c2ccc(Cl)cc2[N+](=O)[O-])c1=O	3.4
CCCCn1c(=O)c2c(N)c3c(=O)c4ccccc4c(=O)c3c(N)c2c1=O	4
N#CCCN(CCO)c1ccc(/N=N/c2ccc([N+](=O)[O-])cc2Cl)cc1	3.9
CCCCC(CC)Cn1c(O)c(C#N)c(C)c(/N=N/c2ccccc2[N+](=O)[O-])c1=O (centres undefined)	4.5
CC(=O)Nc1cc(NCC(C)O)c(Cl)cc1/N=N/c1ccc([N+](=O)[O-])cc1Cl (centres undefined)	4

Test: not given
Details: not given
Remark: another data set of the same source

SMILES	logP
CC(C)(O)C(C)(C)O	-0.05
CC(C)CC(N)=O	0.19
CCC(C)(C)N	0.9
OCCCCCO	-0.43
CC(O)CCO (centres undefined)	-0.79

Test: not given
Details: not given
Remark: another data set of the same source

SMILES	logP
Cc1cc(C)c(C)cc1C	4.24
O=c1cc(-c2ccccc2)oc2c1ccc1ccccc12	4.82
Brc1ccsc1	2.59
c1ccc(-c2ccc(-c3ccccc3)cc2)cc1	6.03
O=[N+]([O-])c1ccc(O)c([N+](=O)[O-])c1	1.79

Test: method code SF-GLC, from DOI: 10.1016/s0045-6535(02)00841-x, PMID: 12615110
Details: not given

SMILES	logP
Brc1cc(Br)c(Oc2cc(Br)c(Br)cc2Br)cc1Br	7.9
Brc1ccc(Oc2cc(Br)c(Br)cc2Br)c(Br)c1	7.32
Brc1ccc(Oc2ccc(Br)c(Br)c2Br)c(Br)c1	7.37
Brc1ccc(Oc2ccccc2Br)c(Br)c1	5.74
Brc1ccc(Oc2ccc(Br)cc2Br)cc1	5.94

Test: not given
Details: not given
Remark: another data set of the same source

SMILES	logP
CC(=O)N(CC(O)CO)c1c(I)c(C(=O)NCCO)c(I)c(C(=O)NCCO)c1I (centres undefined)	-1.84
CC(=O)N(C)c1c(I)c(C(=O)NCC(O)CO)c(I)c(C(=O)NCC(O)CO)c1I (centres undefined)	-2.13
CC(=O)N(CCO)c1c(I)c(C(=O)NCC(O)CO)c(I)c(C(=O)NCC(O)CO)c1I (centres undefined)	-2.4
CC(=O)Nc1c(I)c(C(=O)N(C)CC(O)CO)c(I)c(C(=O)N(C)CC(O)CO)c1I (centres undefined)	-2.14
CC(=O)N(CCO)c1c(I)c(C(=O)N(C)CC(O)CO)c(I)c(C(=O)N(C)CC(O)CO)c1I (centres undefined)	-2.33
CC(=O)Nc1c(I)c(C(=O)NC(CO)CO)c(I)c(C(=O)NC(CO)CO)c1I	-2.22

Test: method code SF-AS, from DOI: 10.1093/chemse/13.4.619
Details: pH 7.2

SMILES	logD
COC(=O)c1ccccn1	0.4
O/N=C/c1cccnc1	0.68
c1ccc(-c2ccncc2)nc1	1.58
COC(=O)c1cccnc1	0.72
c1ccc(-c2cccnc2)nc1	1.46

Test: not given
Details: not given
Remark: another data set of the same source

SMILES	logP
C=C(C)C(=O)OCC(F)(F)F	1.56
C=C(C)C(=O)OCCOC(=O)C(=C)C	1.22
C=C(C)C(=O)OCCCCCCCC(C)C	4.92
C=C(C)C(=O)OCCCOC(=O)C(=C)C	1.86
C=C(C)C(=O)OCC(C)(C)COC(=O)C(=C)C	2.79

Test: method code SF-AS, from Dallet, P.; Dubost, J.; Colleter, J.; Audry, E.; Creuzet, M. (1985). QSAR in a series of alpha-adrenolitic molecules: optimization of physicochemical parameters. Eur J Med Chem, 20(6)551-557.
Details: not given

SMILES	logP
Cc1cc(OCCN(C)C)c(C(C)C)cc1O	2.93
COc1cccc(OC)c1OCCN(C)CCOc1cc(C)c(O)cc1C(C)C	3.12
Cc1cc(OCCN(C)C)c(C(C)C)cc1OC1CCCCC1=O (centres undefined)	3.63
Cc1ccc(C(C)C)c(OCCN(C)C)c1	3.79
CC(=O)Oc1cc(C(C)C)c(OCCN(C)C)cc1C	3.17
CNCCOc1cc(C)c(O)cc1C(C)C	2.35

Test: from Pratesi, P.; Villa, L.; Ferri, V.; DeMicheli, C.; Grana, E.; Grieco, C.; Silipo, C.; Vittoria, A. (1979). On the additive-constitutive properties of substituent hydrophobic parameters in a set of …
Details: not given

SMILES	logP
C=CC#N	0.25
OCCNc1ccccc1	0.82
CC(=O)CCC(=O)O	-0.49
O=C(O)CCCC(=O)O	-0.29
c1ccc(C2CO2)cc1 (centres undefined)	1.84

Test: method code SF-RC, from DOI: 10.1016/j.nucmedbio.2006.06.006, PMID: 16934700
Details: pH 7.4

SMILES	logD
CNc1ccc(-c2cc3ccccc3s2)cc1	3.2
CN(C)c1ccc(-c2cc3ccccc3s2)cc1	3.44
FCCOc1ccc(-c2cc3ccccc3s2)cc1	2.83
Nc1ccc(-c2cc3ccccc3s2)cc1	2.87
FCCNc1ccc(-c2cc3ccccc3s2)cc1	3.46
Oc1ccc(-c2cc3ccccc3s2)cc1	2.99

Test: method code SF-AS, from PMID: 3699148
Details: pH 7.4

SMILES	logD
CCCCOCCNc1ccc(Cl)cc1C(N)=O	2.99
CCCCOCCNc1ccccc1C(N)=O	2.27
Cc1ccccc1OCCNc1ccccc1C(N)=O	2.94
NC(=O)c1ccccc1NCCCO	0.7
NC(=O)c1ccccc1NCC(O)CO (centres undefined)	-0.8
CC(O)CNc1ccccc1C(N)=O (centres undefined)	0.62

Test: not given
Details: not given
Remark: another data set of the same source

SMILES	logP
O=C1NC(Cc2c[nH]c3ccccc23)C(=O)N1Cc1cccc2ccccc12 (centres undefined)	3.03
O=C1NC(c2ccc(Br)cc2)(c2ccc(Br)cc2)C(=O)N1CCN1CCOCC1	4.59
CCCCCCN1C(=O)NC(c2ccc(Br)cc2)(c2ccc(Br)cc2)C1=O	6.39
CCCN1C(=O)NC(c2ccccc2)(c2ccccc2)C1=O	2.86
CCCCCCN1C(=O)NC(Cc2c[nH]c3ccccc23)C1=O (centres undefined)	3.13
CCCCCCCN1C(=O)NC(c2ccc(Br)cc2)(c2ccc(Br)cc2)C1=O	6.95

Test: method code SF-RC, from DOI: 10.1021/jm301492y, PMID: 23214511
Details: pH 7.4

SMILES	logD
O=C(NC1CCCC1)c1ccc(O)c(-c2ccccc2)c1	2.8
NC(=O)c1cccc(-c2cccc(C(=O)NC3CCCCC3)c2)c1	3.61
CCCCCCNC(=O)c1cccc(C2=NCCO2)c1	3.33
O=C(NC1CCC1)c1ccc(O)c(-c2ccccc2)c1	3.42
O=C(NC1CCCC1)c1cccc(C2=NCCO2)c1	2.35
O=C(NC1CCCCC1)c1cccc(C2=NCCO2)c1	3.01

Test: not given
Details: not given
Remark: another data set of the same source

SMILES	logP
Cc1c(Cl)cccc1Cl	4.29
Nc1cc(Cl)c(Cl)c(Cl)c1Cl	3.94
Cc1ccc(Cl)cc1	3.42
Nc1ccccc1Cl	1.74
ClC(Cl)(Cl)C(Cl)(Cl)Cl	3.82
